# Results taken from US8465983B1, “Detection and delivery systems utilizing supported lipid bilayers” (priority 2005, dated 2013).
# Assays:
# [1] = Lipid bilayers on MS-PPE as barriers to superquenching by AQS, flow cytometry; conditions: 10 μM AQS
# Protocol: FIG. 15 graphically illustrates flow cytometric evaluations of different lipids that involved formation of supported lipid bilayers on MS-PPE for the purpose of forming a barrier to quenching by AQS. Lipids tested were 2 mM DPPC, 1 mM egg-PC, and 2 mM DMPG. Fluorescence was normalized to that of MS-PPE without lipids and in absence of AQS. −AQS and +AQS refer to absence and presence of 10 μM AQS. The errors bars represent SD of means of normalized histograms obtained for triplicates.
# Small unilamellar vesicles (SUVs) were prepared using a 2 mM solution of DPPC, 1 mM egg-PC, or 2 mM DMPG in chloroform. The lipid was dried by nitrogen gas followed by vacuum. The dried lipid was resuspended in phosphate buffer saline (PBS), pH 7.4, and incubated at 37° C. for 10 min, then sonicated to optical clarity in a sonication bath (Branson Cleaning Equipment Co., Shelton, Conn.).
# Lipid bilayers were assembled on microspheres as previously described (Buranda et al. Langmuir 19:1654-1663 (2003); Bayerl & Bloom, Biophys J 58:357-362 (1990)). […]
# Bead suspensions of 2.5×10^5 PPE-coated microspheres in 200 μL PBS were analyzed using a FACScan flow cytometer (Becton-Dickinson, Sunnyvale, Calif.) with excitation at 488 nm. Fluorescence signals were acquired on the FL-1 channel (525 nm) using log amplification and analyzed with the CellQuest software.
# [2] = tested on: 90:10 (molar ratio) EPC and DMPG bilayer on porous silica beads; experiment: Suspension study: melittin on EPC/DMPG 90:10 bilayers on fluorescein-containing porous beads; type: biochemical; conditions: highly concentrated melittin, 25° C.
# Protocol: (§1) Experimental procedures were similar to the TRITON X-100 detergent based analysis. For experiments with α-toxin, three different toxin concentrations: 15, 45 and 250 μg/mL were used at 37° C. and 25° C. Beads coated with EPC were used. In the experiments with melittin, 220 μM melittin was used with beads coated with either 100% EPC, 10:90 (molar ratio) mixture of DMPG and EPC or an 80:20 mixture of DMPG and DMPC. All melittin experiments were conducted at 25° C.
# The interaction of highly concentrated melittin solutions was examined with membranes supported on fluorescein containing porous beads, where the membranes contained 100% EPC or a 90:10 mixture (molar ratio) of EPC and DMPG (a negatively charged lipid). […] In the absence of peptide, the amount of dye leakage from the EPC/DMPG beads was similar to that for EPC coated beads.
# [3] = tested on: 80:20 (molar ratio) DMPG and DMPC bilayer on porous silica beads; experiment: Suspension study: melittin on DMPG/DMPC 80:20 bilayers on fluorescein-containing porous beads; type: biochemical; conditions: 220 μM melittin (FIG. 6 legend prints 220 pM), 25° C.
# Protocol: as §1
# In view of the results shown in FIG. 5, the effects of melittin on other mixtures of lipids were examined. […] A 80:20 mixture (molar ratio) of DMPG and DMPC was used to form the lipid bilayers used in this experiment. The increase in fluorescence intensity due to the membrane-melittin interaction, which results in the release of dye from porous beads was about 10 fold. Although this release was not as high as that observed when using TRITON X-100 detergent, it is notable in comparison to the release with α-toxin.
# [4] = tested on: DMPG lipid bilayer supported on MS-PPE; experiment: Superquenching flow cytometric assay for disruption of DMPG lipid bilayer supported on MS-PPE; type: biochemical; conditions: for quenching of the MS-PPE after addition of peptide / association constant with DMPG (reciprocal of the point of half saturation): 10 μM AQS; for quenching of the MS-PPE after addition of peptide: sMLT 3.8 μM, nMLT 1.6 μM, TRITON X-100 0.25% (w/v); for association constant with DMPG (reciprocal of the point of half saturation): binding curves, flow cytometry
# Protocol: Lipid bilayers were disrupted by adding TRITON X-100 detergent to the bead suspension to a final concentration of 0.25% (w/v).
# Bead suspensions of 2.5×10^5 DMPG-coated MS-PPE in 200 μL of PBS were analyzed using a FACScan flow cytometer (Becton-Dickinson, Sunnyvale, Calif.) with excitation at 488 nm. Fluorescence signals were acquired on FL-1 channel (525 nm) using log amplification and analyzed with the CellQuest software. Kinetic analysis of disruption of supported lipid bilayer by melittin was performed by acquiring real-time data with continuous mixing of samples (10^6 MS-PPE in 800 μl of PBS) using a magnetic stirrer. The raw data were analyzed using IDL Query software developed by Bruce Edwards (Cancer Center, University of New Mexico, Albuquerque, N. Mex.).
# Because an anionic lipid was used to form a lipid bilayer around MS-PPE, it was expected that MLT will disrupt the DMPG lipid bilayer by such a detergent-like action. This was tested by adding 10 μM AQS to DMPG-coated MS-PPE followed by treatment with one of the following: TRITON X-100 detergent, synthetic MLT (sMLT), or natural MLT (nMLT) and immediately reading the fluorescence by flow cytometry. […] These histograms resemble the ones reported previously for MS-PPE, without a lipid coating, in absence and in presence of AQS.
# From FIG. 18, the association constant (corresponding to the reciprocal of the point of half saturation) for nMLT and sMLT with DMPG were 5×10^6 M^−1 and 1.7×10^6 M^−1, respectively. […] Lower concentrations of nMLT, in comparison to sMLT, were required to disrupt the DMPG lipid bilayer. This might be attributed to the fact that nMLT contains some phospholipase A2 (PLA2) as a contaminant. PLA2 has a high affinity for anionic phospholipids, with an association constant of 0.5×10^10 M^−1 (Kim et al., Anal. Chem. 250, 109-116 (1997)), which is about 3000 fold higher than that of MLT. Although PLA2 activity requires calcium, which is not present in the experimental system, it has been reported that even upon addition of EDTA to natural MLT, PLA2 maintains its activity, probably due to formation of a tight complex with calcium with PLA2 (Dempsey, C. E. Biochim. Biophys. Acta 1990, 1031, 143-161).
# The kinetics of disruption of supported lipid bilayer by MLT were monitored by measuring real-time changes in fluorescence intensity by flow cytometry (FIG. 19). Suspensions of 10^6 DMPG-coated MS-PPE in 800 μL of PBS were treated with AQS at a final concentration of 10 μM, then with either sMLT, TRITON X-100 detergent, or no treatment. […] Treatment with sMLT in the absence of AQS led to an increase in normalized fluorescence (FIG. 19, trace A). This can be attributed to disruption of the lipid bilayer by sMLT, and is consistent with a reversal of the slight quenching of fluorescence caused by the formation of a DMPG lipid bilayer over MS-PPE. Addition of AQS alone to DMPG-coated MS-PPE (FIG. 19, trace C) led to a 20% reduction in fluorescence as reported earlier. Addition of TRITON X-100 detergent to DMPG-coated MS-PPE after the addition of AQS (first dip in trace E, FIG. 19) caused immediate decrease in fluorescence to ˜10% of its original value (second dip in trace E, FIG. 19). In contrast, addition of sMLT, after the addition of AQS, (FIG. 19, trace D) led to a gradual reduction of fluorescence intensity to ˜20% of the original value. Although MLT forms dimers at high concentrations (Dempsey, C. E. Biochim. Biophys. Acta 1990, 1031, 143-161), it is monomeric at the concentrations used in this study. On the other hand, TRITON X-100 detergent forms micelles at the concentration used in this study.
# [5] = tested on: supported lipid bilayer surrounding a porous bead that contains fluorescein; experiment: Kinetics of supported lipid bilayer disruption by α-toxin, pH gradient, flow cytometry; type: biochemical
# Excerpt: FIGS. 4A-B illustrates the effects of alpha-toxin on lipid bilayer integrity. FIG. 4A graphically illustrates dose-dependent release of fluorescent dye from a lipid bilayer coated microbead after introduction of different concentrations of alpha-toxin, a membrane-associated pore-forming protein from Staphylococcus aureus. The normalized fluorescence intensity (at 520 nm) of the supernatant is plotted versus time for EPC-coated, fluorescein filled porous beads when using different concentrations of α-toxin added. 10% Triton was added after 150 min. FIG. 4B illustrates the kinetics of disrupting a supported lipid bilayer by α-toxin as monitored by recording changes in fluorescence intensity every 2 minutes by flow cytometry. The lipid bilayer surrounded a porous bead that contains a pH-reactive molecule (fluorescein), and the pH outside the beads was adjusted to 11.0, whereas inside the beads the pH was 2.6. As illustrated, increasing amounts of c′-toxin increases the fluorescence emitted from within the beads.
# In another experiment a lipid bilayer surrounding a porous bead that contains a pH-reactive molecule (fluorescein) was exposed to α-toxin. The pH outside the beads was adjusted to 11.0, whereas inside the beads the pH was 2.6. The kinetics of disruption of supported lipid bilayer by α-toxin were monitored by recording changes in fluorescence intensity every 2 minutes by flow cytometry. For the first 8 minutes there was no significant change in fluorescence intensity (FIG. 4B). However, after 8 minutes there was a gradual increase in fluorescence intensity (FIG. 4B) resulting from insertion of α-toxin into the supported lipid bilayer thus forming channels permeable to hydrogen cations and hydroxyl ions, which reduces the difference in the pH outside and inside the microspheres. […] This can be attributed to insertion of many α-toxin channels at this high concentration leading to disruption of the lipid bilayer and immediate equilibration of the pH inside and outside the porous microspheres.
# [6] = tested on: EPC lipid bilayer on porous silica beads; experiment: Suspension study: disruption of EPC bilayers on fluorescein-containing porous silica beads, release of dye into supernatant; type: biochemical; conditions: all three concentrations 15, 45 and 250 μg/mL
# Protocol: Lipid coatings on beads were disrupted using 10% TRITON X-100 detergent. Each sample in micro-centrifuge tubes contained 5 mg of lipid bilayer coated, fluorescein entrapped beads in 200 μL of Tris buffer. Samples were centrifuged and 100 μL aliquots of supernatant were mixed with either 100 μL of Tris buffer or 100 μL of 10% TRITON X-100 detergent in separate centrifuge tubes. The fluorescence intensity of each mixture was immediately (time=0) recorded. Each mixture was mixed with its respective bead sample in centrifuge tube and incubated at 25° C. in the dark. After 30 min, samples were centrifuged and fluorescent intensity of the supernatants was measured. Beads were resuspended in their respective supernatants. Fluorescence intensity was again measured at 90 and 150 min.
# as §1
# Previous suspension studies on disruption of lipid bilayers have been performed with small unilamellar vesicles where disruption of the lipid bilayer membranes was detected by monitoring the unquenching of a highly concentrated, encapsulated dye. In the present work disruption was monitored via release of fluorescein dye from porous beads, by measuring the increase in fluorescence intensity of the supernatant at 520 nm. Beads were first suspended in Tris buffer containing the disruptor. After selected time periods, beads were sedimented by centrifuging and a portion of the supernatant was taken for the measurement. The measured portion was added back to the bead sample to permit continuous monitoring. The scattering effect that was present in vesicle based studies was minimized by measuring only the supernatant after centrifugation of the beads.
compound,measurement,setting,value
"CCCCCCCCCCCCCCCC(=O)OC[C@H](COP(=O)([O-])OCC[N+](C)(C)C)OC(=O)CCCCCCCCCCCCCCC [DPPC, 1,2-dipalmitoyl-sn-glycero-3-phosphatidylcholine]",fluorescence with quencher relative to MS-PPE and quencher without the lipid,[1],~10 fold
same,reduction (quenching) of polymer fluorescence of lipid-coated MS-PPE on addition of AQS,[1],~40%
CC[C@H](C)[C@H](NC(=O)CN)C(=O)NCC(=O)N[C@@H](C)C(=O)N[C@H](C(=O)N[C@@H](CC(C)C)C(=O)N[C@@H](CCCCN)C(=O)N[C@H](C(=O)N[C@@H](CC(C)C)C(=O)N[C@H](C(=O)N[C@H](C(=O)NCC(=O)N[C@@H](CC(C)C)C(=O)N1CCC[C@H]1C(=O)N[C@@H](C)C(=O)N[C@@H](CC(C)C)C(=O)N[C@H](C(=O)N[C@@H](CO)C(=O)N[C@@H](Cc1c[nH]c2ccccc12)C(=O)N[C@H](C(=O)N[C@@H](CCCCN)C(=O)N[C@@H](CCCNC(=N)N)C(=O)N[C@@H](CCCCN)C(=O)N[C@@H](CCCNC(=N)N)C(=O)N[C@@H](CCC(N)=O)C(=O)N[C@@H](CCC(N)=O)C(N)=O)[C@@H](C)CC)[C@@H](C)CC)[C@@H](C)O)[C@@H](C)O)C(C)C)C(C)C [melittin],release of dye from EPC/DMPG coated beads compared with 100% EPC coated beads,[2],slightly higher
same,increase in fluorescence intensity due to release of dye,[3],about 10 fold
"nMLT: natural melittin from Sigma, contains some phospholipase A2 as a contaminant",quenching of the MS-PPE after addition of peptide,[4],comparable to that occurring on addition of TRITON X-100 detergent
same,association constant with DMPG (reciprocal of the point of half saturation),[4],5e+06 M⁻¹
sMLT: synthetic melittin obtained from Sigma,quenching of the MS-PPE after addition of peptide,[4],comparable to that occurring on addition of TRITON X-100 detergent
same,"fluorescence intensity after addition, % of original value (real-time kinetics)","[4]; 10^6 DMPG-coated MS-PPE in 800 μL PBS, after 10 μM AQS",~20%
same,association constant with DMPG (reciprocal of the point of half saturation),[4],1.7e+06 M⁻¹
"α-toxin: membrane active pore-forming protein secreted by Staphylococcus aureus, ˜33 kDa",concentration at which increase in fluorescence intensity reached its maximum,"[5]; pH 11.0 outside, pH 2.6 inside beads",15 µg/mL
same,time without significant change in fluorescence intensity before gradual increase,"[5]; pH 11.0 outside, pH 2.6 inside beads, read every 2 minutes",8 min
same,change in fluorescence intensity,[5]; α-toxin 45 μg/mL,did not cause a change in fluorescence intensity different from the baseline
same,increase in fluorescence intensity after 150 min,[6]; 25° C.,about 3 fold
same,increase in fluorescence intensity after 150 min,[6]; 37° C.,about 6.5 fold
